# Measured values taken from patent US11691928B2, “Compositions, systems and methods for delivery of an element in response to biological demand” (Lucent Biosciences, Inc., priority 2018, dated 2023).
# How the values were obtained:
# [1] = Effect of composition on pH of surrounding tap water; format: physicochemical; conditions: 4 ppm iron; tap water alone 6.93
# Text: Since the pH of water is an important factor in biology for microorganism growth and survival, experiments were undertaken to determine what effect the compositions had on the pH of surrounding water.
# The effects of 4 ppm iron-loaded composition (“Fe—WP”), iron chloride and iron sulfate on the pH of tap water was examined. […] However, the same amount of iron with sources of iron chloride and iron sulfate reduced the pH of tap water within a range of 1.6-2.9 units.
# mung bean plants = test: Plant growth study with salts or compositions comprising zinc or manganese on wood pulp in soil at elevated concentrations; format: in vivo
# Description: Mung bean seeds were planted in 2 g of sterile sunshine mix soil in autoclaved jars. […] The wood pulp, acting as the carrier, was Canfor 350/70-1 (carrier C from Table 1). […] The root length was measured from start of roots to longest root tip. […] The plants to be used in the presence of compositions as disclosed herein were sowed in 2 g of sunshine mix to which 0.1 g of the composition was added, made of various concentrations of zinc or manganese. These were all watered with 5 mL deionized water. The beans grew in this treatment for 9 further days.
Compound,PH of tap water [1],toxicity for mung bean plants (mung bean plants; 2000 ppm in soil),"mung bean stem height and root length growth (mung bean plants; 2000 ppm zinc as salt in soil, 9 days, FIGS. 7(a), 7(b))"
"O=S(=O)([O-])[O-].O=S(=O)([O-])[O-].O=S(=O)([O-])[O-].[Fe+3].[Fe+3] [Fe2(SO4)3, iron sulfate]",4.17,–,–
"[Cl-].[Cl-].[Zn+2] [zinc, zinc chloride]",–,exhibits toxicity,reduced stem height and root length growth
iron chloride [FeCl3],4.03,–,–
